# Experimental data: article PMC10221320
# Read-outs that look alike come from different tables or passages of the source.
# Key:
# [1] = cited from earlier work
# Text: (§1) Venom-derived toxins affecting ASICs may cause pain or, on the contrary, have analgesic, anti-inflammatory or neuroprotective effects. The first identified peptide agonist of ASIC channels, from the venom of the coral snake Micrurus tener tener, is a complex of MitTxα (Kunitz fold) and MitTxβ (phospholipase A2-like protein) subunits.
# [2] = ref [34]; cited from earlier work
# ASIC3 = details: cited from earlier work
# Text: Some non-selective, low-molecular ligands of ASIC channels, acting at micromolar concentrations, are enabled for clinical medicine and veterinary procedure: local anesthetics (lidocaine and tetracaine), nonsteroidal anti-inflammatory drugs (NSAIDs) (ibuprofen, aspirin, and diclofenac), potassium-sparing diuretic amiloride and the antibacterial/antiparasitic drug, diminazene. […] Preclinical and clinical stu ... || Venom-derived toxins affecting ASICs may cause pain or, on the contrary, have analgesic, anti-inflammatory or neuroprotective effects. The first identified peptide agonist of ASIC channels, from the venom of the coral snake Micrurus tener tener, is a complex of MitTxα (Kunitz fold) and MitTxβ (phospholipase A2-like protein) subunits.
# ASIC1b = details: ref [36]; cited from earlier work
# ASIC2a = details: ref [36]; cited from earlier work
# hERG channels = test system: hERG channels; design: method as in PMID 29134638; details: ref [36]; cited from earlier work
# NaV1.8 = test system: NaV1.8; design: method as in PMID 29134638; details: ref [36]; cited from earlier work
# [3] = 1 mg/kg intramuscularly; ref [34]; cited from earlier work
# Text: (§2) Contradictory results concerning the involvement of ASIC1a channels in the antidepressant activity and the in vivo effects of ASIC1a inhibitors, namely tarantula toxin, PcTx1, have been published earlier. Thus, in a number of experiments, it was shown that ASI ...
# ASICs = details: ref [45]; cited from earlier work
# CD-1 mice [4] = experiment: Acetic-acid-induced writhings (acid-induced muscle pain model); format: in vivo, mouse; details: 1 mg/kg i.v.
# Procedure: (§3) The animal studies were performed under the European Commission’s legislation (Directives 86/609/EEC, 2010/63/EU), the National Standard of the Russian Federation “Good Laboratory Practice” (GOST P 53434-2009, Moscow, Russia), and Committee on Ethics of Laboratory Animal Handling № 05/21, 20 September 2021 and 08/21, 30 December 2021 protocols (PIBOC FEB RAS). Adult female CD-1 mice weighing 25 ± 2 g were subjected to a 12 h light–dark cycle at room temperature and with ad libitum access to food and water. There were seven or eight individuals in each group.
# Three groups of animals were treated with peptides at doses of 0.01, 0.1 and 1 mg/kg (intravenously) 15 min before an injection of 300 μL of a 0.7% acetic acid solution. The control animal group received an identical volume of saline. The positive control group received intravenously a dose 1 mg/kg of diclofenac (Hemofarm A.D., Vršac, Serbia), a commercial drug of the NSAID group. Fifteen minutes immediately after acid administration, the number of writhings and the writhing time (time in a spasmodic state) were counted.
# CD-1 mice [5] = experiment: Carrageenan-induced paw edema; format: in vivo, mouse; details: 1 mg/kg
# Procedure: as §3
# Three groups of animals were treated with peptides at doses of 0.01, 0.1 and 1 mg/kg (intravenously) 30 min before the induction of inflammation. The control animal group received an identical volume of saline. The positive control group received diclofenac (Hemofarm A.D., Vršac, Serbia) at a dose of 1 mg/kg. The edema was induced by a 20 µL injection of 1.5% solution of λ-carrageenan (Sigma Aldrich, St. Louis, MO, USA) in the hind paw pad. The resulting edema was measured after 1, 2, 4 and 24 h using a plethysmometer (Ugo Basile, Gemonio (VA), Italy). The anti-inflammatory threshold was estimated as a decrease in the paw volume and volume growth index (%), calculated using the formula: Volume Growth Index (%) = [(VC − Vi)/Vi] × 100, (1), where VC is the volume of the paw after the introduction of carrageenan and Vi is the volume of the paw before the introduction of carrageenan.
# CD-1 mice [6] = experiment: Hot plate test; format: in vivo, mouse; details: 52 °C
# Procedure: as §3
# Thermal analgesia was tested with a Hot Plate Analgesia Meter (IITC Life Science Inc., Woodland Hills, CA, USA). Measurements were carried out 15 min after the intravenous injection of peptides at doses of 0.1 and 1 mg/kg. The control animals received 300 µL of sterile saline. Metamizole (Pharmstandard, Russia) was used as a positive control administrated intraperitoneally at a dose of 500 mg/kg 30 min before testing. Animals were placed individually on the preheated surface of a plate (up to 52 °C), and nociceptive reactions, withdrawal, or licking of the front and hind legs were recorded.
# ASIC1a = details: ref [20]; cited from earlier work
# Text: as §1
# rats = details: ref [53]; cited from earlier work
# Text: as §2
# [7] = eight hours after a stroke; ref [18],[19]; cited from earlier work
# [8] = test system: ASIC1a, ASIC1b, ASIC2a and ASIC3 channels; details: ref [7],[13]; read-out: IC50, inhibition of ASIC1a, ASIC1b, ASIC2a and ASIC3 channels; cited from earlier work
# Text: Some non-selective, low-molecular ligands of ASIC channels, acting at micromolar concentrations, are enabled for clinical medicine and veterinary procedure: local anesthetics (lidocaine and tetracaine), nonsteroidal anti-inflammatory drugs (NSAIDs) (ibuprofen, aspirin, and diclofenac), potassium-sparing diuretic amiloride and the antibacterial/antiparasitic drug, diminazene. […] Preclinical and clinical stu ...
compound,measurement,setting,value
APETx2,effect on edema,[1]; ref [34],partially reduces edema
same,antihyperalgesia,[2],induces antihyperalgesia in an acid-induced muscle pain model
same,IC50,"ASIC3; ref [20], read-out: IC50, ASIC3",0.037 to 0.063 µM
same,effect on ASIC1b,ASIC1b,potentiation
same,effect on ASIC2a,ASIC2a,potentiation
same,hERG inhibition,hERG channels,ability to inhibit hERG channels
same,NaV1.8 inhibition,NaV1.8,inhibition
same,locomotion and CNS-mediated behavior,[3],did not impair locomotion and the CNS-mediated behavior in the open field test
O=C(O)Cc1ccccc1Nc1c(Cl)cccc1Cl [Diclofenac],IC50,"ASIC3; ref [45], read-out: IC50, sustained current component of ASIC3",92 ± 19 µM
same,inflammation-induced expression of ASICs,ASICs,decreases the inflammation-induced expression of ASICs
same,"effect on writhings, positive control",CD-1 mice [4],reduced the number of writhings
same,"anti-inflammatory effect, positive control",CD-1 mice [5],reduced inflammation more rapidly (1–24 h range)
same,analgesic effect in hot plate test,CD-1 mice [6]; peptides 0.1 and 1 mg/kg i.v.,did not affect the pain sensitivity in this test
PcTx1: ICK-peptide from the tarantula Psalmopoeus cambridgei,IC50,ASIC1a,0.0003 to 0.0037 µM
same,antinociceptive effect,[1]; ref [23],strong antinociceptive effect in the acute and neuropathic pain models
same,anxiety levels,rats,increases anxiety levels in rats
same,neuroprotection after stroke,[7],ineffective
Cc1c(N(C)CS(=O)(=O)O)c(=O)n(-c2ccccc2)n1C [Metamizole sodium],increase in latent time of licking both front and hind paws,CD-1 mice [6]; 500 mg/kg i.p. 30 min before testing,more than 1.5 times
N=C(N)NC(=O)c1nc(Cl)c(N)nc1N [amiloride],IC50,[8],5 to 100 µM
